This is an account of results in paper PMC11451537, “P2X7 receptors exhibit at least three modes of allosteric antagonism” (Science Advances, 2024).

What is called IC50 is the concentration at which inhibition is half-maximal. The inhibition is the drop in the measured response relative to a control, in per cent. High values mean a response far below the control, low ones a response near the control.

Residue numbers refer to the chain shown, from its start. Bounds are passed on as bounds.

Common to all, as to type: cell-based
The target of one assay is T1, rP2X7-K297V (Rattus norvegicus, UniProt Q64663, K297V).
T1 sequence (Q64663 1-595 K297V): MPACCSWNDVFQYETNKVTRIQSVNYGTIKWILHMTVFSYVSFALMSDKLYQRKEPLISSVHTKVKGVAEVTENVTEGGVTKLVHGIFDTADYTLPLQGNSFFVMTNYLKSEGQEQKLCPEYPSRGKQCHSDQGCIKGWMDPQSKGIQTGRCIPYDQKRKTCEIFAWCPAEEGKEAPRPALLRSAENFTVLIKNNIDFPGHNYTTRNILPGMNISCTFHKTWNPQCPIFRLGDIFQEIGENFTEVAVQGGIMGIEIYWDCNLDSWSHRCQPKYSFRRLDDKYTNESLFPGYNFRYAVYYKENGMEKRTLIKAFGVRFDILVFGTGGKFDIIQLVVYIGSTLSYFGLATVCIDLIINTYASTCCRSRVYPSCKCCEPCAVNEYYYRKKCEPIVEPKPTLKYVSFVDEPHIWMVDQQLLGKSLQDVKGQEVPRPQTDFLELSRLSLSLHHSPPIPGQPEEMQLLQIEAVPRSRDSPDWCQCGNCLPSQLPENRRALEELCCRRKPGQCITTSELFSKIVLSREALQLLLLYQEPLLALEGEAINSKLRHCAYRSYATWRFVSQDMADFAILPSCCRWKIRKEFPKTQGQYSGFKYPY
Kind of assay: TEVC inhibition dose-response, rP2X7-K297V mutant. The following applies: signals evoked by 300 μM ATP, read-out: IC50 (inhibitory potency), K297V. An excerpt:
(§1) Structural determination of the full-length, wild-type rP2X7 was completed using a construct previously described containing no truncations or mutations ([16]). Furthermore, the rP2X7-WT construct used for electrophysiology experiments is unmodified full-length, wild-type rP2X7 with no green fluorescent protein (GFP), protease sites, or affinity tags present. The hP2X1-WT, hP2X2-WT, hP2X3-WT, hP2X4-WT, and hP2X7-WT constructs used for electrophysiology are similarly unmodified full-length, wild-type receptor constructs with no GFP, protease sites, or affinity tags present. Mutations to the rP2X7-WT construct used for electrophysiology experiments were made directly in the pcDNA3.1x plasmid. These constructs included the following: rP2X7-K297A, rP2X7-K297G, rP2X7-K297M, rP2X7-K297Q, rP2X7-K297V, rP2X7-Y298A, rP2X7-Y298G, rP2X7-Y298V, rP2X7-Y298L, rP2X7-R316A, rP2X7-R316G, rP2X7-R316Q, rP2X7-R316H, rP2X7-F88A, rP2X7-F103A, and rP2X7-Y295A.
(§2) To evaluate the inhibitory response of an antagonist for a dilution series, an initial excitatory signal was evoked at a subtype-specific concentration of ATP. Next, the antagonist was applied at a test concentration for 60 s and then coapplied at the same test concentration of the antagonist with the identical subtype-specific concentration of ATP. The antagonized signal was then normalized against the preceding excitatory signal evoked by ATP for each individual oocyte tested. The pre- and post-antagonist signals were evoked by 10 μM ATP for hP2X1, 10 μM ATP for hP2X2, 1 μM ATP for hP2X3, 50 μM ATP for hP2X4, and 100 μM ATP for P2X7. For the K297V mutation in rP2X7, pre- and post-antagonist signals were evoked by 300 μM ATP. Each dataset was then fit to a nonlinear regression named “[inhibitor] vs. response – Variable slope (four parameters)” in GraphPad Prism 9 to produce a sigmoidal curve and afford an IC50 value. Each singular condition was used to generate an average which is reported plus or minus its SD between three discrete trials.

In another assay the target is T2, rP2X7-F103A (Rattus norvegicus, UniProt Q64663, F103A).
T2 sequence (Q64663 1-595 F103A): T1 sequence (Q64663 1-595 K297V) with F103A, V297K
Kind of assay: TEVC inhibition dose-response, rP2X7-F103A mutant. The following applies: for IC50: reduced expression and variable response to ATP, read-out: IC50 (inhibitory potency), F103A.
Excerpt: as §1, §2

In a further assay the target is T3, rP2X7 (Rattus norvegicus, UniProt Q64663).
T3 sequence (Q64663 1-595): T1 sequence (Q64663 1-595 K297V) with V297K
Description: TEVC inhibition dose-response (IC50), wild-type rP2X7 in Xenopus laevis oocytes. Also noted: the rP2X7-WT construct used for electrophysiology experiments is unmodified full-length, wild-type rP2X7; expressed in transfected cells; host or cells: Xenopus laevis oocytes injected with mRNA made from pcDNA3.1x. Conditions: for IC100 (100% inhibitory concentration): calculated from IC50 values, concentration applied in the recovery experiments; for IC50: wild-type rP2X7, TEVC, 100 μM ATP, 60 s antagonist pre-application, mean ± SD, triplicate.
Excerpt: as §2

Consider `Clc1cccc(-c2nnnn2Cc2cccnc2)c1Cl` [A438079], for which the IC50 is 0.11 ± 0.09 µM on rP2X7-K297V, more than 10 µM on rP2X7-F103A and 0.55 ± 0.113 µM on rP2X7. For the same compound, the “IC100 (100% inhibitory concentration)” value at rP2X7 is 6.6 µM.
For `Clc1cccc(-n2nnnc2NCc2ccccc2Oc2ccccn2)c1Cl` [A839977] the same measures were 0.0032 ± 0.0006 µM, more than 1 µM, 0.116 ± 0.013 µM and 1 µM.
As to `O=C(NCC12CC3CC(CC(C3)C1)C2)c1cc(CCCNCCCO)ccc1Cl` [AZD9056], the values for the IC50 at rP2X7-K297V, on rP2X7-F103A and against rP2X7 were 0.012 ± 0.001 µM, more than 10 µM and 0.3 ± 0.1 µM, respectively. The “IC100 (100% inhibitory concentration)” value at rP2X7 is 3 µM.
With `CN1C(=O)CC[C@H]1C(=O)NCc1cccc(C(F)(F)F)c1Cl` [GSK1482160], the IC50 on rP2X7-K297V was 1.3 ± 0.4 µM; on rP2X7-F103A, more than 20 µM; at rP2X7 it was 3.6 ± 0.5 µM. In addition, at rP2X7, the “IC100 (100% inhibitory concentration)” value is 81 µM.
Take `O=C(NCC1(N2CCN(c3ccccc3)CC2)CCOCC1)c1cccnc1Sc1ccccc1` [JNJ47965567]: at rP2X7-K297V, the IC50 worked out at 0.021 ± 0.006 µM. In addition, the “inhibition at 625 nM, F103A” value against rP2X7-F103A (625 nM antagonist) is 50-80%. In addition, on rP2X7, the “IC100 (100% inhibitory concentration)” value was 1.3 µM and half-maximal inhibition (IC50) required 0.022 ± 0.006 µM.
Consider `O=S(=O)(O)c1ccc(N=C2C=CC(=C(c3ccc(Nc4ccc(S(=O)(=O)O)cc4)cc3)c3ccc(Nc4ccc(S(=O)(=O)O)cc4)cc3)C=C2)cc1` [methyl blue], for which the IC50 at rP2X7-K297V is 4 ± 1 µM. The same compound gave an inhibition at 30 µM on rP2X7-F103A (30 µM antagonist) of 50 to 75%. Further, at rP2X7, the “IC100 (100% inhibitory concentration)” value was 108 µM and it took 4 ± 1 µM to reach half-maximal inhibition (IC50).
